How the values were obtained:
aP2 = assay: RT-PCR expression of adipogenic marker aP2 in 3T3-L1; assay type: cell-based, mouse; conditions: for expression level of adipogenic marker aP2 (individual peptides): 3T3-L1, incubated for three days
Experimental: (§1) 3T3-L1 cells (pre-adipocytes) were seeded at a density of 3×10^5 cells/well into 6-well plates. […] Thereafter, the cells were harvested and treated with an RNA extraction solution (Easy Blue, Intron) to prepare RNA from which cDNA was then synthesized using an RT premix (Intron). PCR was performed using primers for […] markers (PPARγ, ACC, and aP2), and a PCR premix (Intron).
(§2) Target-specific primer sequences for PCR of adipogenic markers were as follows: PPARγ forward primer sequence, 5′-[…]-3′ and PPARγ reverse primer, 5′-[…]-3′ (annealing temperature, 60° C.); ACC forward primer sequence, 5′-[…]-3′ and ACC reverse primer, 5′-[…]-3′ (annealing temperature, 60° C.); aP2 forward primer sequence, 5′-[…]-3′ and aP2 reverse primer, 5′-[…]-3′ (annealing temperature, 60° C.)
(§3) PCR products were each loaded in a volume of 5 μl into a 1% agarose gel, and electrophoresed, followed by identifying bands in a Gel-Doc.

[1] = tested on: DIO (diets induced obesity) models; assay: Weight loss and adipogenesis suppression in high-fat diet-fed animal (DIO), 12 weeks; assay type: in vivo, mouse; conditions: for Weight: intraperitoneal injection; for Weight (%): relative to initial weight
Experimental: Models DIO (diets induced obesity), which had become obese by feeding high-fat diets thereto, were used for anti-obesity experiments in which TNFα 5 μg/ml was used as a positive control. For a control, a general diet, not a high-fat diet, was fed. In the experiment, a high-fat diet was fed for 12 weeks while the peptide complex or the positive control was applied. During the experiment, the weight was monitored. TNFα and the anti-obesity compounds were intraperitoneally injected at PM 3-4 o'clock every week for 12 weeks. Weights and meal sizes were measured just before the initial injection and then regularly at intervals of one week. Blood samples were taken from tail veins after the experiments of drug injection and measured for blood sugar levels, using Accu-Check Active (Roche) and analyzed for cholesterol levels, using Cholesterol calculation Kit (BioVision). Adipose tissues are divided into white fat and brown fat by color and into subcutaneous fat, abdominal fat, mesentery fat (visceral fat), and epididymal fat by tissue. After lipoectomy, the fats thus obtained from the tissues were observed. For histological examination, the fats were fixed with 10% neutral buffered formalin, embedded in paraffin blocks, cut into 5 μm-thick sections, and dyed with hematoxylin and eosin. To analyze the phosphorylation of the lipolytic marker HSL, fluorescent staining was carried out with an anti-pHSL antibody. A tissue sample was made, mounted on glycerine jell mounting media, and covered with a cover glass. The tissues were observed under a microscope (Nikon, TS100), with a built-in digital camera taking images thereof.

PPARγ = assay: RT-PCR expression of adipogenic marker PPARγ in 3T3-L1; assay type: cell-based, mouse; conditions: 3T3-L1, three days; complex 0.1, 1, 10 μg/ml; TNFα 100 ng/ml
Experimental: as §1, §2, §3

ACC = assay: RT-PCR expression of adipogenic marker ACC in 3T3-L1; assay type: cell-based, mouse; conditions: 3T3-L1, three days; complex 0.1, 1, 10 μg/ml; TNFα 100 ng/ml
Experimental: as §1, §2, §3

[2] = tested on: DB/DB diabetes-induced mice; assay: Blood sugar over time in DB/DB diabetes-induced mice given individual peptides; assay type: in vivo, mouse; conditions: starved 16 hours, fed 30 min, then peptide administered
Experimental: In addition, after starvation for 16 hours, DB/DB diabetes-induced mice were fed for 30 min and then administered with the peptides. Blood sugar levels were measured over times.

[3] = tested on: 3T3-L1 cells (pre-adipocytes); assay: Suppression of lipid accumulation in pre-adipocytes (Oil Red O staining); assay type: cell-based, mouse; conditions: 3T3-L1, various concentrations, differentiation induced for 10 days
Experimental: The pre-adipocytes 3T3-L1 cells were grown to confluence and then incubated for two days with various concentrations of the peptides in a differentiation medium containing 10 μg/ml insulin, 0.1 μM dexamethasone, and 0.5 μM IBMX. The medium was exchanged every two days with a medium containing 10 μg/ml insulin. After differentiation was induced for 10 days, the generation of droplet in the cells was examined by Oil Red O staining. The prepared 3T3-L1 adipocytes were washed with PBS, fixed with 3.7% formalin for one hour, and washed with 60% isopropanol. The resulting cells were dyed with Oil Red O reagent at room temperature for 20 min. After removal of the Oil Red O reagent, the cells were washed three times with distilled water, and observed under a phase-contrast microscope. For quantitative analysis, fats were extracted from the cells using 100% isopropanol, and the cells were transferred in an amount of 200 μl/well into 96-well plates and measured for optical density at 500 nm using an ELISA reader.

insulin = assay: Western blotting of insulin expression in 3T3-L1; assay type: cell-based, mouse; conditions: 3T3-L1, 10 ng-1 μg/ml, 14 days; dose-dependent
Experimental: (§4) 3T3-L1 cells (pre-adipocytes) were seeded at a density of 3×10^5 cells/well into 6-well plates and grown for 24 hours. Subsequently, the cells were incubated with various concentrations (10 ng-1 μg/ml) of the peptides for 14 days in a 37° C. incubator. Proteins were extracted from cell lysates which were obtained by treatment with cell lysis buffer, quantitatively analyzed, and subjected to Western blotting using an anti-IGF-1 antibody, which is an antibody against the lipolytic marker, and an insulin antibody (Santa Cruz Biotechnology, USA).

IGF-1 = assay: Western blotting of IGF-1 expression in 3T3-L1; assay type: cell-based, mouse; conditions: 3T3-L1, 10 ng-1 μg/ml, 14 days; dose-dependent
Experimental: as §4

Substance: TNFα
- expression of adipogenic marker aP2 (aP2; 3T3-L1, three days, complex 0.1, 1, 10 μg/ml, TNFα 100 ng/ml): decrease
- Weight ([1]; 0 w): 22.41 g
- Weight (%) ([1]; 0 w): 100%
- Weight ([1]; 1 w): 23 g
- Weight (%) ([1]; 1 w): 102.6%
- Weight ([1]; 2 w): 26.12 g
- Weight (%) ([1]; 2 w): 116.6%
- Weight ([1]; 3 w): 27.45 g
- Weight (%) ([1]; 3 w): 122.5%
- Weight ([1]; 4 w): 30.51 g
- Weight (%) ([1]; 4 w): 136.1%
- Weight ([1]; 5 w): 32.76 g
- Weight (%) ([1]; 5 w): 146.2%
- Weight ([1]; 6 w): 33.49 g
- Weight (%) ([1]; 6 w): 149.4%
- Weight ([1]; 7 w): 35.14 g
- Weight (%) ([1]; 7 w): 156.8%
- Weight ([1]; 8 w): 37.15 g
- Weight (%) ([1]; 8 w): 165.8%
- Weight ([1]; 9 w): 38.97 g
- Weight (%) ([1]; 9 w): 173.9%
- Weight ([1]; 10 w): 40.39 g
- Weight (%) ([1]; 10 w): 180.2%
- Weight ([1]; 11 w): 41.35 g
- Weight (%) ([1]; 11 w): 184.5%
- Weight ([1]; 12 w): 43.91 g
- Weight (%) ([1]; 12 w): 195.9%
- expression of adipogenic marker PPARγ (PPARγ): decrease
- expression of adipogenic marker ACC (ACC): decrease

Substance: ASYLPHPWFS (Peptide 5) [SEQ ID NO: 5]
- blood sugar levels over time [2]: decrease in a time-dependent manner
- expression level of adipogenic marker aP2 (individual peptides) (aP2): decreased
- extent of fat (lipid) accumulation in cells, Oil red O staining [3]: decreased

Substance: SDLRRLEMYS (Peptide 7) [SEQ ID NO: 7]
- expression of insulin (insulin): increased
- expression of IGF-1 (IGF-1): increased

Substance: NH2-Leu-Lys-Thr-Arg-Asn-COOH (H-LKTRN-OH) [SEQ ID NO: 1]
- blood sugar levels over time [2]: decrease in a time-dependent manner
- expression level of adipogenic marker aP2 (individual peptides) (aP2): decreased
- extent of fat (lipid) accumulation in cells, Oil red O staining [3]: decreased

Substance: KGASTGWMA (Peptide 3) [SEQ ID NO: 3]
- blood sugar levels over time [2]: decrease in a time-dependent manner
- expression level of adipogenic marker aP2 (individual peptides) (aP2): decreased
- extent of fat (lipid) accumulation in cells, Oil red O staining [3]: decreased
